This is an account of results in patent publication US9518038B2, “Condensation product of theanine derivative and carboxylic acid coumarin derivative, its intermediate, preparation method and use thereof” (SHANDONG YINGDONG YINGHAO BIOTECHNOLOGY, INC., priority 2012, dated 2016).

Data set [1] deals with human lung cancer cells A549. Put plainly: MTT growth inhibition, A549 cells. It counts as cell-based. The settings on record: 72 h after treatment, read-out: Drug concentration (IC50) at which 50% cancer cells survived.
Data set [2] relates to human breast cancer cells MDA-MB-231. Put plainly: MTT growth inhibition, MDA-MB-231 cells. It counts as cell-based. To be noted: 72 h after treatment, read-out: Drug concentration (IC50) at which 50% cancer cells survived.
The test system of data set [3] is human prostate cancer cells PC-3. The experiment in a line: MTT growth inhibition, PC-3 cells. Type of data set: cell-based. To be noted: 72 h after treatment, read-out: Drug concentration (IC50) at which 50% cancer cells survived. From the text: Cell lines and cell culture: human lung cancer cells A549 and H460, human breast cancer cells MCF-7 and MDA-MB-231, human gastric cancer cells BGC-823, human prostate cancer cells PC-3, human chronic leukemia cells K562, human lymphoma cells U937, human liver cancer cells SMMC7721 and HepG2, human colon cancer cells HT29, human pancreatic cancer cells PANC-1 and BxPC3, human cervical cancer Hela cell lines, human brain tumor cells Daoy, human neuroma cells D54 and human oral epidermoid cancer cells KBV200 line with strong drug resistance, mouse melanoma cells B16, and highly metastatic Lewis lung cancer cell lines were purchased from American Type Culture Collection of the U.S. These cells were cultured with DMEM and RPMI-1640 culture solutions separately.
The procedure was as follows:
(1) 0.25% trypsin was used to digest cancer cells in a logarithmic growth phase to prepare a single-cell suspension, the concentration of cells was adjusted to 5×10^4/mL, and the adjusted suspension was inoculated into a 96-well culture plate with 100 μl per well;
(2) The culture plate was transferred into a 37° C. incubator with a saturated humidity and 5% of CO2 and cultured for 24 h; the compounds and the intermediates thereof obtained in embodiments 1-7 and the compound as represented by formula (IIIa) or the positive control anti-cancer drug with the concentration of 1-1000 μM/L were added to enable the final concentration to be 0.1-1500 μM/L. Control wells (only added with 200 μl of cell suspension) and drug-free blank control wells (containing the solvent of 0.01% DMSO) were set, each group included 8 wells, and the plate was placed into the 37° C. incubator with saturated humidity and 5% of CO2 for culturing;
(3) The 96-well plate was taken out at 48 h and 72 h after dosing, the original culture medium was carefully removed by suction, 100 μl of serum-free DMEM culture medium and 10 μl of MTT (5 mg/mL) solution were added in each well. The plate was continuously cultured for another 4 h and then the culture was terminated;
(4) The supernatant in the wells was carefully removed by suction, each well was added with 150 μl of DMSO and shaked at room temperature for 10-15 min to fully dissolve crystals.
(5) Colorimetric analysis: the wavelength was selected as 570 nm, the light absorbance (A value) of each well was determined on the microplate reader and the results were recorded; the experiment was repeated for three times;
(6) the experimental results were calculated according to the following formula: relative survival rate=(A value of each experimental group/A value of cell control group)×100%
Calculation of median-effect concentration (IC50, namely the drug concentration at which the inhibition rate is 50%, also known as half inhibitory concentration):
IC50 of the detected component was calculated by using a regression equation.

In data set [4] the test system is human liver cancer cells SMMC7721. The experiment in a line: MTT growth inhibition, SMMC7721 cells. It counts as cell-based. The settings on record: SMMC-7721, S-7721 (SMMC7721), 72 h after treatment, read-out: Drug concentration (IC50) at which 50% cancer cells survived.
In data set [5] the test system is Lewis lung cancer (highly metastatic mouse lung cancer) cells. The experiment in a line: Mouse Lewis lung cancer metastasis model. It counts as in vivo, C57/BL6J black mice. The settings on record: Lewis lung carcinoma, ip, LLC, vs DMSO solvent control, read-out: tumor lung metastasis inhibition rate % of mouse Lewis lung cancer; for inhibition in vivo at 60 mg/kg: 60 mg/kg intraperitoneal once a day; for inhibition in vivo at 90 mg/kg: 90 mg/kg intraperitoneal once a day. As for the experimental part:
RPMI1640 and DMEM culture solutions: Hyclone Company; inactivated fetal bovine serum: Hyclone Company, preserved at −20° C.; trypsin: Amersco Company; and 0.4% trypan blue: Sigma Company;
(4) sacrifice of animals: the mice were anesthetized and photoed after treatment experiments; the nude mice were sacrificed by breaking neck, the tumor tissues were stripped under sterile conditions and the weight of the tumors was weighed; and the effects of the drugs on pathology and toxicity of the various organs and tissues were detected.

A short description of data set [6]: Fluorescent imaging in vivo and in vitro. To be noted: 60 mg/kg body weight/0.2 ml. Type of data set: physicochemical. How it is done: Fluorescent images and wavelength ranges of the compounds as obtained in embodiments 1-7 were determined according to the literature method (Chen Y, et al., 2-(3-{1-Carboxy-5-[(6-[18F]fluoro-pyridine-3-carbonyl)-amino]-pentyl}-ureido)-pentanedioic acid, [18F]DCFPyL, a PSMA-based PET imaging agent for prostate cancer. Clin Cancer Res, 2011, 17(24):7645-53), and the results were shown in Table 3 and FIG. 1.
2. Experimental procedure: For in-vitro fluorescent imaging and detection: the compounds Ia-Ih as obtained in embodiments 1-7 were prepared in 1.5 ml plastic centrifugal tubes into a solution with the concentration of 60 mg/0.2 ml, fluorescent signals and images were respectively detected and recorded with a multifunctional microplate reader and an animal in-vivo imaging instrument under the following excitation and emission wavelength conditions, and the obtained results were shown in Table 3 and FIG. 1 (small test tube photos); and for the detection of fluorescent images in-vivo: after 16 h of fasting treatment of the experimental animals (while drinking water was normally supplied), solutions of the compounds Ia-Ih as obtained in embodiments 1-7 were prepared according to a concentration of 60 mg/kg body weight/0.2 ml, and intraperitoneally administered to the animal, the fluorescent images were detected and recorded with the animal in-vivo imaging instrument under the following excitation and emission wavelength conditions, the obtained results were shown in FIG. 1 (animal in-vivo imaged photos); wherein, the experimental excitation wavelength range was 360 nm-590 nm; and the detection wavelength range was 410 nm-700 nm.

Data set [7] has as its system VEGFR2. Put plainly: Western Blotting, VEGFR2 level. Type of data set: cell-based. To be noted: human liver cancer cells, Lewis lung cancer cells and other cancer cell lines and tumor tissues, read-out: Effective concentration (IC50) for inhibition of VEGFR2. From the text:
(§1) Antibodies: primary antibodies of VEGFR, EGFR, c-Met, K-Ras, H-Ras, Akt, NF-κB, Cyclin D1, ER-alpha, Dvl-1, Dvl-2, Dvl-3, MMP-9, MMP2, β-catenin, Bcl-2, Bax, p53, p21, E-cadherin and Caspase3 protein, purchased from American Cell Signaling Technology Company and Santa Cruz Technology Company; and H3 acetylation, H4 acetylation and HDAC (HDAC3, HDAC4 and the like) Antibody Sample Kits, purchased from Cell Signaling Technology Company of the U.S.
(§2) (3) polyacrylamide gel electrophoresis (SDS-PAGE): an equal amount of protein lysate sample was used to separate protein, film transfer, and blocking, treated with appropriate primary antibodies and secondary antibodies in sequence, and the film was washed, then the color was developed with ECL kit, and a blot protein band was detected by exposure of an X-ray film; and a Gel-Pro Analyzer was used for quantitative analysis of gray degree, optical density value of the control group and the drug treatment group in various concentration were respectively compared with that of internal reference, the obtained ratios were respectively compared with the control group, and the protein expression level was semi-quantified.

For data set [8], the system named is EGFR. The experiment in a line: Western Blotting, EGFR level. Type of data set: cell-based. The settings on record: human liver cancer cells, Lewis lung cancer cells and other cancer cell lines and tumor tissues, read-out: Effective concentration (IC50) for inhibition of EGFR.
From the text: as §1, §2
On the technique in general: In western blotting, separated proteins are transferred to a membrane and probed.

Regarding `CCNC(=O)CC[C@H](N)C(=O)OC` [Compound IIa, theanine methyl ester], the IC50 in data set [1] is 650 ± 30 µM; in data set [2] it was 480 µM; in data set [3] it was 350 µM; in data set [4], 230 µM. The inhibition in vivo at 60 mg/kg in data set [5] came out at 36.8%. Further, in data set [5], the inhibition in vivo at 90 mg/kg is 38.5%.
For `CCNC(=O)CC[C@@H](NC(=O)c1cc2cc(Cl)ccc2oc1=O)C(=O)OCC` [Compound Ic, (R)-2-(6-CI-2-oxo-2H-benzopyran-3-carboxamido)-5-ethylamino-5-oxo-pentanoic acid ethyl ester], the IC50 is 128 ± 60 µM in data set [1]; 87 µM in data set [2]; 105 µM in data set [3]; 75 µM in data set [4]; less than 100 µM in data set [7]; less than 100 µM in data set [8]. The inhibition in vivo at 60 mg/kg in data set [5] was 74.2%. Also, the inhibition in vivo at 90 mg/kg in data set [5] is 79.2%. Besides, in data set [6], the “Emission (fluorescent wavelength range detectable in vivo and in vitro)” value (“Emission” below) is reported as 430-670 nm. For the same compound, the “Excitation (fluorescent wavelength range detectable in vivo and in vitro)” value (from here on “Excitation”) in data set [6] was 360-610 nm.
For the compound `CCNC(=O)CC[C@@H](NC(=O)c1cc2cc(Br)cc(Br)c2oc1=O)C(=O)OCC` [Compound Ih, (R)-2-(6,8-dibromo-2-oxo-2H-benzopyran-3-carboxamido)-5-ethylamino-5-oxo-pentanoic ethyl ester], the IC50 is 56 µM in data set [1]; 98 µM in data set [2]; 87 µM in data set [3]; 86 µM in data set [4]; less than 100 µM in data set [7]; less than 100 µM in data set [8]. For the same compound, in data set [5], the inhibition in vivo at 60 mg/kg worked out at 77.9%. The inhibition in vivo at 90 mg/kg in data set [5] is 80.7%. In data set [6], the “Emission” value is 430-690 nm. Besides, in data set [6], the “Excitation” value is recorded as 360-610 nm.
`CCNC(=O)CCC(NC(=O)c1cc2cc(F)ccc2oc1=O)C(=O)OCC` (stereo in doubt) [Compound Ie, (R)-2-(6-F-2-oxo-2H-benzopyran-3-carboxamido)-5-ethylamino-5-oxo-pentanoic acid ethyl ester]: the IC50 was 141 µM in data set [1]; 90 µM in data set [2]; 127 µM in data set [3]; 61 µM in data set [4]; less than 90 µM in data set [7]; less than 110 µM in data set [8]. Besides, in data set [5], the inhibition in vivo at 60 mg/kg came out at 61.6%. Also, the inhibition in vivo at 90 mg/kg in data set [5] was 70.8%. Also, the “Emission” value in data set [6] is recorded as 430-650 nm. Also, in data set [6], the “Excitation” value was 360-610 nm.
For the compound `CCNC(=O)CC[C@@H](NC(=O)c1cc2cc(Cl)cc(Cl)c2oc1=O)C(=O)OCC` [Compound Ig, (R)-2-(6,8-dichloro-2-oxo-2H-benzopyran-3-carboxamido)-5-ethylamino-5-oxo-pentanoic ethyl ester], the IC50 in data set [1] was 45 µM; in data set [2] it was 92 µM; in data set [3], 45 µM; in data set [4], 78 µM; in data set [7], less than 100 µM; in data set [8], less than 100 µM. The inhibition in vivo at 60 mg/kg in data set [5] turned out to be 75.5%. The inhibition in vivo at 90 mg/kg in data set [5] worked out at 79.9%. Further, the “Emission” value in data set [6] is reported as 430-690 nm. Besides, in data set [6], the “Excitation” value is reported as 360-610 nm.
For `CCNC(=O)CCC(NC(=O)c1cc2ccccc2oc1=O)C(=O)OCC` (stereo not drawn) [Compound Ib, ethyl 5-ethylamino-5-oxo-2-(2-oxo-2H-benzopyran-3-carboxamido)pentanoate], the IC50 in data set [1] is 125 ± 50 µM; in data set [2] it was 109 µM; in data set [3], 125 µM; in data set [4] it was 17 µM; in data set [7], less than 120 µM; in data set [8], less than 120 µM. In data set [5], the inhibition in vivo at 60 mg/kg was 58.2%. In data set [5], the inhibition in vivo at 90 mg/kg worked out at 69.6%. The “Emission” value in data set [6] is reported as 430-650 nm. The “Excitation” value in data set [6] is reported as 360-610 nm.
For `CCNC(=O)CCC(NC(=O)c1cc2cc([N+](=O)[O-])ccc2oc1=O)C(=O)OCC` (stereo in doubt) [Compound If, (R)-2-(6-nitro-2-oxo-2H-benzopyran-3-carboxamido)-5-ethylamino-5-oxo-pentanoic acid ethyl ester], the IC50 was 122 µM in data set [1]; 110 µM in data set [2]; 171 µM in data set [3]; 61 µM in data set [4]; less than 90 µM in data set [7]; less than 100 µM in data set [8]. Also, in data set [5], the inhibition in vivo at 60 mg/kg was 67.5%. Also, the inhibition in vivo at 90 mg/kg in data set [5] turned out to be 75.8%. Further, the “Emission” value in data set [6] is reported as 430-650 nm. Further, the “Excitation” value in data set [6] is given as 360-610 nm.
For the compound `CCNC(=O)CC[C@H](N)C(=O)OCC` [Compound IIb, theanine ethyl ester], the IC50 in data set [1] was found to be 500 ± 30 µM; in data set [2], 400 µM; in data set [3], 400 µM; in data set [4], 400 µM. Also, in data set [5], the inhibition in vivo at 60 mg/kg came out at 52.3%. For the same compound, the inhibition in vivo at 90 mg/kg in data set [5] came to 54.7%.
